Measurements taken from ChEMBL document CHEMBL1201862, “PubChem BioAssay data set” (2004).
Activity calls are given as the source filed them.

Columns and labels:
HEK293 = assay: EBV LMP1 TES2 canonical NF-kB signalling blockers – cell-based, HEK293, luciferase, cherry-pick, dose response (AID 588343); format: functional; settings: Homo sapiens
[1] = target: T1, Replicative DNA helicase DnaB (Mycobacterium tuberculosis, UniProt P9WMR3); assay: DnaB intein splicing inhibitors, dose response, biochemical, cell-free fluorescence (AID 449749); format: functional
T1 sequence (P9WMR3 whole entry): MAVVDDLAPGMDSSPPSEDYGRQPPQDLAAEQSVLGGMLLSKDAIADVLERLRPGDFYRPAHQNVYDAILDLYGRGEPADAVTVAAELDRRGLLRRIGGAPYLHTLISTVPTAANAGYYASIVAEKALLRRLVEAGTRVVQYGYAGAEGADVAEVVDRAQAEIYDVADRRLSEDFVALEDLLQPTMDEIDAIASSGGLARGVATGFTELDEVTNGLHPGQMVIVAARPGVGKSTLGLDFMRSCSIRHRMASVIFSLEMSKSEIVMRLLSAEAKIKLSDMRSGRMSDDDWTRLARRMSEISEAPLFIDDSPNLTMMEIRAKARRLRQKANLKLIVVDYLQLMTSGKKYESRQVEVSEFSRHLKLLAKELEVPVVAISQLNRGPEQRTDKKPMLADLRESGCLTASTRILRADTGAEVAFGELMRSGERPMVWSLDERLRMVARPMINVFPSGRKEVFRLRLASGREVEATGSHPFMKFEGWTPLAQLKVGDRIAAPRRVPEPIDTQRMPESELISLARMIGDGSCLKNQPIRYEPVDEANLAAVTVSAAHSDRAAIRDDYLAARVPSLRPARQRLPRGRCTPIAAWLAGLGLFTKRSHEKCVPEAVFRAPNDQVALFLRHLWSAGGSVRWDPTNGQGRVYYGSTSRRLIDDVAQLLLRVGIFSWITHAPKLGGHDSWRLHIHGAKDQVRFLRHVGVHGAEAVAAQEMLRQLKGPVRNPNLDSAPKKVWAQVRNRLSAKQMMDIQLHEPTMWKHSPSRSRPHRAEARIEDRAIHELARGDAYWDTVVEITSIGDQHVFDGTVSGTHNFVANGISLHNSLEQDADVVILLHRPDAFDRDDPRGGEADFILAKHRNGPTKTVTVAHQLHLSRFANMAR

Vero = assay: viability of Vero cells under compound – cytotoxicity control for flavivirus capping enzyme inhibitors (AID 588742); format: functional; settings: Chlorocebus sabaeus
[2] = target: Latent membrane protein 1 (Human herpesvirus 4 (strain B95-8), UniProt P03230); assay: LMP1 TES1 pathway selectivity over dsRED control – imaging, HEK293T, dual-color eGFP/dsRED, cherry-picks, selectivity assay for LMP1 NF-kB inhibitor project, dose response (AID 588398); format: functional, cell-based
Latent membrane protein 1, sequence (P03230 whole entry): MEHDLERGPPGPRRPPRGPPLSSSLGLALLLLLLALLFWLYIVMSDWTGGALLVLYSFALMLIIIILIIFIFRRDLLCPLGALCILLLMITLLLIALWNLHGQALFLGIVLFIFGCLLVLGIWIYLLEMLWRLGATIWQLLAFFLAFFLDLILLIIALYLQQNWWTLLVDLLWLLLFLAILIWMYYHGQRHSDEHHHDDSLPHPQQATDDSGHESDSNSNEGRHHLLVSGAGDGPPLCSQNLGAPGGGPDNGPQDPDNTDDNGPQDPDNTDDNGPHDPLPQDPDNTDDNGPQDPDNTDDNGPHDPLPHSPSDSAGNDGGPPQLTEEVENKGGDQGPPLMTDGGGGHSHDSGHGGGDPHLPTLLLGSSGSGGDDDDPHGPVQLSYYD

Protein RecA = target: T2, Protein RecA (Mycobacterium tuberculosis, UniProt P9WHJ3); assay: Fluorescence Cell-Free Homogeneous Dose Retest to Identify Inhibitors of RecA-Intein Splicing Activity. [Related pubchem assays (depositor defined):AID2097, AID2223, AID489010, AID492950]; format: functional
T2 sequence (P9WHJ3 whole entry): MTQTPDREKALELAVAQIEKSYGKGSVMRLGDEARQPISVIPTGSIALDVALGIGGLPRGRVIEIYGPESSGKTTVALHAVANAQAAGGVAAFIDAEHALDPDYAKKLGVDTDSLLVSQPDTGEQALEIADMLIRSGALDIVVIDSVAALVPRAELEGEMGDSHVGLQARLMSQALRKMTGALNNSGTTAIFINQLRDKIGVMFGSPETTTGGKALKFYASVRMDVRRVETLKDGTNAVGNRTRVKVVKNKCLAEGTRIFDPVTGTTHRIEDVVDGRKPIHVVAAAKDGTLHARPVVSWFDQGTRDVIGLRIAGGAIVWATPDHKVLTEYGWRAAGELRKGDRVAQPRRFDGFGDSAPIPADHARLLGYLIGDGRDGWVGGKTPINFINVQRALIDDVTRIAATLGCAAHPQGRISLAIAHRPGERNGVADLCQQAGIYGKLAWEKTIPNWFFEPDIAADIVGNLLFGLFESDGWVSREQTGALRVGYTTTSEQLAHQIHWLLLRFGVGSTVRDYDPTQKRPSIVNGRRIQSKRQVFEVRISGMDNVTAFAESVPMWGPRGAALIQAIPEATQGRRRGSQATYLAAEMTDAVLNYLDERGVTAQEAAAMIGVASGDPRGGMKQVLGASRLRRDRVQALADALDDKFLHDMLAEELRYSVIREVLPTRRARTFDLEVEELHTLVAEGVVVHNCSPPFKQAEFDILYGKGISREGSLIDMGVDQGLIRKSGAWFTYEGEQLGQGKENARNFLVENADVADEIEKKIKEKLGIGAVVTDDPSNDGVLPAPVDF

Genome polyprotein = Genome polyprotein (dengue virus type 2, UniProt P29990); assay: flavivirus cap methylation enzyme inhibition – biochemical, confirmation dose response, primary screen (AID 588689); format: functional
Genome polyprotein, sequence (P29990 2492-3391 limits assumed): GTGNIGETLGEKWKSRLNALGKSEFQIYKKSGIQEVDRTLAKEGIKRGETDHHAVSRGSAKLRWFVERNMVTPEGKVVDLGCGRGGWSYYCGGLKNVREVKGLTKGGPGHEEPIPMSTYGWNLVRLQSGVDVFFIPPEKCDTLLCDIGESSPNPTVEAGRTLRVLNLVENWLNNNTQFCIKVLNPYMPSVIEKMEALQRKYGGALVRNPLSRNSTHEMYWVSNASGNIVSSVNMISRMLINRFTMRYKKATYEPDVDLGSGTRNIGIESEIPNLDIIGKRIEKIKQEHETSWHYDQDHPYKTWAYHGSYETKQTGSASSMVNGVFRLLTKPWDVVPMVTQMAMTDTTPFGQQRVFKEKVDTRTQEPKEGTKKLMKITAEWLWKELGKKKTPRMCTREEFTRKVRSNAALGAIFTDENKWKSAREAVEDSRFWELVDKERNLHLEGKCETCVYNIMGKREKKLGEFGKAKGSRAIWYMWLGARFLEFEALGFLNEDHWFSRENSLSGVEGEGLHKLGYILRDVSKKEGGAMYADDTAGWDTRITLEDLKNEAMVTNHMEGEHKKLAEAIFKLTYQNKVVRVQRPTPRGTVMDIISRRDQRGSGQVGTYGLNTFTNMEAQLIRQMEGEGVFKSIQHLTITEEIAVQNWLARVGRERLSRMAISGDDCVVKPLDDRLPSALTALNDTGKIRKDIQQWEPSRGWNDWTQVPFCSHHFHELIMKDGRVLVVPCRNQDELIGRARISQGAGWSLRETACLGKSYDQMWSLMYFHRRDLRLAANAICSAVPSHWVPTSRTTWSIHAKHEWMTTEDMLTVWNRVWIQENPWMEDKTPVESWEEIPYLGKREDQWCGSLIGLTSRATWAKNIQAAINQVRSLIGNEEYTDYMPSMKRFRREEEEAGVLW

[3] = target: T3, Long-chain-fatty-acid--AMP ligase FadD28 (Mycobacterium tuberculosis, UniProt P9WQ59); assay: Fluorescence polarization aasay to screen for inhibitors that compete for the binding of FadD28 to a bisubstrate Measured in Biochemical System Using Plate Reader - 2147-01_Inhibitor_Dose_CherryPick_Activity.; format: functional, Mycobacterium tuberculosis H37Rv
T3 sequence (P9WQ59 whole entry): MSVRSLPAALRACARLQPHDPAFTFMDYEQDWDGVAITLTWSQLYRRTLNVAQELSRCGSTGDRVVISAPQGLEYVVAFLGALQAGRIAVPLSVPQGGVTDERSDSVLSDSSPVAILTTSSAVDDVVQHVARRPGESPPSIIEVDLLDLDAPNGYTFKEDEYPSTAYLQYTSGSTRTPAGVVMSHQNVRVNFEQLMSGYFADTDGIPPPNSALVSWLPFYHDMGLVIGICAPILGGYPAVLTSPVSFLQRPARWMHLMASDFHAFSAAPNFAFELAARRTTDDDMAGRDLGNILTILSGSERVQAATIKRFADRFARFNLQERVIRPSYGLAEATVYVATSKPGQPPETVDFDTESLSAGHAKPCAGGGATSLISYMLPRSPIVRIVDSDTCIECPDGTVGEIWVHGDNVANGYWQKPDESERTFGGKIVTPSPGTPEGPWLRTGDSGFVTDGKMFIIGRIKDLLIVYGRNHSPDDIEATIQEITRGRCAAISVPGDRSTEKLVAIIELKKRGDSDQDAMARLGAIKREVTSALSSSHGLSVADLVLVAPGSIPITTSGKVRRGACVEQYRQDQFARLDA

Beta-galactosidase = Beta-galactosidase (Escherichia coli, UniProt Q8VNN2); assay: PubChem AID 485352; format: functional
Beta-galactosidase, sequence (Q8VNN2 whole entry): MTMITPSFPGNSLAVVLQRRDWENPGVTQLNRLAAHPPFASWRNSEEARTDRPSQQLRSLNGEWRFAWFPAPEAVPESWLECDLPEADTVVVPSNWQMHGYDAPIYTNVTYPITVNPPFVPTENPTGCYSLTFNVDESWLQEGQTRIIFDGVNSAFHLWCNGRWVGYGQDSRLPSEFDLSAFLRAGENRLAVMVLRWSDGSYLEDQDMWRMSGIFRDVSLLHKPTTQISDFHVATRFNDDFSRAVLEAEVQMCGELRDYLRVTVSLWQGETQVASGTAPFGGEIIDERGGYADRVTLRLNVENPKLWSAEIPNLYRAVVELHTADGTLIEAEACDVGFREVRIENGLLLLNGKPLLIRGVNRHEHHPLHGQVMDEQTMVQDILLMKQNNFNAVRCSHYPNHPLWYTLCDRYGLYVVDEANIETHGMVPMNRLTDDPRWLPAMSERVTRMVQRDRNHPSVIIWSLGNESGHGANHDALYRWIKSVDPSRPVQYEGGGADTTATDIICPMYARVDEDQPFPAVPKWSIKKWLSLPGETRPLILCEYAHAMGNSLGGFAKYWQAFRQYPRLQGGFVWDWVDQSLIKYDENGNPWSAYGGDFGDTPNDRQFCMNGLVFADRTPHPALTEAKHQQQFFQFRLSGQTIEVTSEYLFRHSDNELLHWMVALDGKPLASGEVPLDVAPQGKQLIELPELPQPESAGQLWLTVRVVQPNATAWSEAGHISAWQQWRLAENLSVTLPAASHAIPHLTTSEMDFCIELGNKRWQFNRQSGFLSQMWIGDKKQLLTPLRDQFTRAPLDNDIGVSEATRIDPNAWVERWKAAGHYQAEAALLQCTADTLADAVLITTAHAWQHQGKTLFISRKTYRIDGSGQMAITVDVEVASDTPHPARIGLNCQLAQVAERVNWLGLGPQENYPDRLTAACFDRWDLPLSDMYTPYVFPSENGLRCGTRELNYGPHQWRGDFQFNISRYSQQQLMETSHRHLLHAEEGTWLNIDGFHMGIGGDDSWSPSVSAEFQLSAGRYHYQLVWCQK

[4] = target: T4, Heat shock factor protein 1 (Mus musculus, UniProt P38532); assay: decrease of HSF1-responsive luciferase luminescence – cell-based, NIH3T3, dose retest, confirmation (AID 2382); format: functional;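 note: NIH3T3 fibroblasts with HSF1-driven luciferase reporter stressed by proteasome inhibitor MG132; luminescence from HSF1-driven luciferase expression after 8 hours of MG132 stress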
T4 sequence (P38532 whole entry): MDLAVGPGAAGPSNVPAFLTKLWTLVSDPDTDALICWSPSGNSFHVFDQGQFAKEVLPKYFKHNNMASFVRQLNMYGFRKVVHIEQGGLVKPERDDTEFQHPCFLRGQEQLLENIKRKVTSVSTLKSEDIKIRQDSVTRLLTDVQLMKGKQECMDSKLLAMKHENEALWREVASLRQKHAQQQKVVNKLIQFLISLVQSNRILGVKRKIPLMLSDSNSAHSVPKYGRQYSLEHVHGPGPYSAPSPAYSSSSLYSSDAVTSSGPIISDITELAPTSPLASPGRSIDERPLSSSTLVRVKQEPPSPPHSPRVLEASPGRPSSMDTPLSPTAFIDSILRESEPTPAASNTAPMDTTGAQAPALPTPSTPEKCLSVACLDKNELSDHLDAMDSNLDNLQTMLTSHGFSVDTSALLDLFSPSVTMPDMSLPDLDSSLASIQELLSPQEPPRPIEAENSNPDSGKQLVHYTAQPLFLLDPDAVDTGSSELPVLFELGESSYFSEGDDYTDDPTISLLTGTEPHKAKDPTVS

[5] = target: Type-1 angiotensin II receptor (Homo sapiens, UniProt P30556); assay: antagonism of angiotensin II type 1 receptor – cell-based, uHTS hits, selectivity assay for APJ receptor antagonist project, dose response (AID 463214); format: functional;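 note: antagonist potency against angiotensin II stimulated AT1 response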
Type-1 angiotensin II receptor, sequence (P30556 whole entry): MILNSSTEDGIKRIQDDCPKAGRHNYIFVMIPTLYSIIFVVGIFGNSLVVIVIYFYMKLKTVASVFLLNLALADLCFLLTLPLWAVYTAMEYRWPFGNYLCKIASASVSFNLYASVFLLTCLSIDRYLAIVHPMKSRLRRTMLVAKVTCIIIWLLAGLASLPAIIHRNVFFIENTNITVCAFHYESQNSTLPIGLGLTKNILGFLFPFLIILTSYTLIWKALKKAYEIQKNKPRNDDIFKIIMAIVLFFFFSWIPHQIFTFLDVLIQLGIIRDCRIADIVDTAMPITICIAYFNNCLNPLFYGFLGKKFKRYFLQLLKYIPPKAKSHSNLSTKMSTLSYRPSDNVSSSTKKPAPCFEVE

[6] = THP-1 cell cytotoxicity, dose response, cytotoxicity control for non-replicating M. tuberculosis project (AID 489025); format: functional
[7] = HepG2 cell cytotoxicity, dose response, cytotoxicity control for non-replicating M. tuberculosis project (AID 489018); format: functional; settings: Mycobacterium tuberculosis
[8] = Vero E6 cell cytotoxicity, dose response, cytotoxicity control for non-replicating M. tuberculosis project, secondary assay (AID 492998); format: functional, VeroE6; settings: Vero C1008
cells = format: functional
CHO = CHO cell viability loss, potency – luminescence, cytotoxicity control for TLR9-MyD88 binding inhibitor project, dose response (AID 588339); format: functional, cell-based, hamster; settings: Cricetulus griseus;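 note: CHO cells stably coexpressing TLR9 and MyD88 fusions from primary screen; compound exposure lasted 48 hours before viability readout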
[9] = target: Heat shock protein HSP 90-alpha (Homo sapiens, UniProt P07900); format: functional, organism-based
Beta Lactamase = Beta Lactamase (Pseudomonas aeruginosa, UniProt Q932Y6); assay: BLA reporter interference, concentration series – BLA reporter cells, FRET fluorescence, artefact control for TLR9-MyD88 binding inhibitor project, dose response (AID 588341); format: cell-based;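 note: cell based assay in CHO-K1 cells stably expressing beta-lactamase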
Beta Lactamase, sequence (Q932Y6 whole entry): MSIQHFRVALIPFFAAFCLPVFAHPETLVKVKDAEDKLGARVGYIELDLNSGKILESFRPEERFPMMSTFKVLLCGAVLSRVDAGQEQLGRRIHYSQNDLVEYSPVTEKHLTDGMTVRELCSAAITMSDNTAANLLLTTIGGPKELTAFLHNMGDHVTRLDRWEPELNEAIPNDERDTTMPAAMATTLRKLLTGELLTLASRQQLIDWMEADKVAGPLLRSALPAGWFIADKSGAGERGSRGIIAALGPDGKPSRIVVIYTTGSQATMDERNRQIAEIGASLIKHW

INS1 = assay: INS-1E survival protection against cytokine death – cell-based, luminescence, retest, dose response (AID 449756); format: functional; settings: Rattus norvegicus;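 note: cell death triggered by IL-1 beta plus TNF-alpha plus IFN-gamma mixture; protective hits raise ATP signal compared with cytokine alone wells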
[10] = Fluorescence-based cell-based high throughput dose response assay for inhibitors of the interaction of nucleotide-binding oligomerization domain containing 2 (NOD2) and the receptor-interacting serine-threonine kinase 2 (RIPK2).; format: functional; settings: Homo sapiens
Paired box protein Pax-8 = Paired box protein Pax-8 (Homo sapiens, UniProt Q06710); assay: PAX8 transcriptional activity inhibition in RMG-I – RMG-I cells, luciferase, cherry-pick, dose response (AID 687027); format: functional, cell-based;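 note: luciferase reporter driven by Pax8 target thyroperoxidase promoter measured by SteadyGlo luminescence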
Paired box protein Pax-8, sequence (Q06710 whole entry): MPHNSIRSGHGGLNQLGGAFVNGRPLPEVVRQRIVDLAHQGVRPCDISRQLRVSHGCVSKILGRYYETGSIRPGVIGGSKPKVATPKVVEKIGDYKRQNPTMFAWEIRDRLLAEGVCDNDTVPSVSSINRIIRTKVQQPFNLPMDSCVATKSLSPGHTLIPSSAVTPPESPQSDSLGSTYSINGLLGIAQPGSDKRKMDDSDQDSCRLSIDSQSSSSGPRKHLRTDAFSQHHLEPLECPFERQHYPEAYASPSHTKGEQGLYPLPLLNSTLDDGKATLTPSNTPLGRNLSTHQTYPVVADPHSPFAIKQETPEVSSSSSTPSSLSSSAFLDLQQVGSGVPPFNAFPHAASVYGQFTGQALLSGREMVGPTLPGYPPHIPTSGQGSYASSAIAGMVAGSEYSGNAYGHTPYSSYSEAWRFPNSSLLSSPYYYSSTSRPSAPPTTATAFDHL

[11] = general cell-killing toxicity readout – plate reader, dry powder samples, cytotoxicity control for PAX8 inhibitor project, dose response (AID 743021); format: functional, cell-based

Compound: CCc1ccc(/C=C/C(=O)C2C(=O)c3ccccc3C2=O)cc1
- AC50 (HEK293): 4.59 µM (active)
- AC50 [1]: 51.1 µM (active)
- CC50 (Vero): 34.7 µM (active)
- AC50 [2]: 27.4 µM (active)
- EC50 (Protein RecA): 22.7 µM (active)
- IC50 (Genome polyprotein): 62.8 µM (active)
- AC50 [3]: 80.4 µM (active)

Compound: O=C(C#Cc1ccccc1)c1ccco1
- EC50 (Beta-galactosidase): > 40 µM (inactive)
- EC50 [4]: 6.57 µM (active)
- IC50 [5]: 8.43 µM (active)
- CC50 [6]: 11 µM (active)
- CC50 [7]: 9.8 µM (active)
- CC50 [8]: 7.89 µM (active)
- IC50 (cells): 1.32 µM (active)
- IC50 (CHO): 1.82 µM (active)
- AC50 [9]: 3.05 µM (active)
- IC50 (Beta Lactamase): > 49.8 µM (inactive)
- AC50 (INS1): 6.11 µM (active)
- IC50 [10]: 2.25 µM (active)
- AC50 (Paired box protein Pax-8): 9.61 µM (active)
- AC50 [11]: 23.7 µM (active)
